{"source": "patent US12023345B2", "about": "“Compositions and methods for treating lysosomal disorders” (RUSH UNIVERSITY MEDICAL CENTER, priority 2014, dated 2024)", "key": {"[1]": {"details": "at high doses; cited from earlier work"}, "Lamp2, Limp2 and Npc1": {"test_system": "Lamp2, Limp2 and Npc1", "experiment": "mRNA of lysosomal genes by real-time PCR in mouse primary astrocytes", "format": "cell-based", "details": "5 μM aspirin, serum-free", "protocol": "Quantitative Real-Time PCR: The mRNA quantification was performed using the ABIPrism7700 sequence detection system (Applied Biosystems, Foster City, CA) using SYBR Select master mix (Applied Biosystems). The mRNA expression of the targeted genes was normalized to the level of Gapdh mRNA and data was processed by the ABI Sequence Detection System 1.6 software."}, "LAMP2": {"test_system": "LAMP2", "experiment": "LAMP2 protein by Western blot and immunocytochemistry in mouse primary brain cells", "format": "cell-based", "details": "for level of LAMP2 (Western blot): different doses of aspirin", "protocol": "Immunostaining of Cells: Immunocytochemistry was performed as described earlier (29). Briefly, 8 well chamber slides containing mouse primary astrocytes, mouse neurons were cultured to 70-80% confluence were fixed with chilled Methanol (Fisher Scientific, Waltham, MA) overnight, followed by two brief rinses with filtered PBS. Samples were blocked with 2% BSA (Fisher Scientific) in PBS containing Tween 20 (Sigma) and Triton X-100 (Sigma) for 30 min and incubated at room temperature under shaking conditions for 2 hr in PBS containing the following anti-mouse primary antibodies: TFEB (1:1000; Abcam), GFAP, (1:1000; DAKO), LAMP2 (1:500, Abcam), NeuN (1:500, Millipore), and MAP2 (1:200, Millipore). […] Following four 15 minute washes with filtered PBS, cells were incubated for 4-5 min with 4′, 6-diamidino-2-phenylindole (DAPI, 1:10,000; Sigma). The samples were run in an EtOH and Xylene (Fisher) gradient, mounted, and observed under Olympus BX41 fluorescence microscope.\nImmunoblotting: Western blotting was conducted as described earlier (31, 32) with modifications. Briefly, cells were scraped in 1× RIPA buffer, protein was measured using Bradford reagent and sodium dodecyl sulfate (SDS) buffer was added and electrophoresed on NuPAGE® Novex® 4-12% Bis-Tris gels (Invitrogen) and proteins transferred onto a nitrocellulose membrane (Bio-Rad) using the Thermo-Pierce Fast Semi-Dry Blotter.\nThe membrane was then washed for 15 min in TBS plus Tween 20 (TBST) and blocked for 1 hr in TBST containing BSA. Next, membranes were incubated overnight at 4° C. under shaking conditions with the following 1° antibodies; TFEB (1:1000, Abcam), LAMP2 (1:500, Abcam) and β-actin (1:800; Abcam, Cambridge, MA). The next day, membranes were washed in TBST for 1 hr, incubated in 2° antibodies against 1° antibody hosts (all 1:10,000; Jackson ImmunoResearch) for 1 hr at room temperature, washed for one more hour and visualized under the Odyssey® Infrared Imaging System (Li-COR, Lincoln, NE)."}, "mouse primary astrocytes": {"test_system": "mouse primary astrocytes", "experiment": "LysoTracker staining of mouse primary astrocytes (lysosomal biogenesis)", "format": "cell-based", "details": "24 h", "protocol": "[The procedure below names another cell line; the source lists this cell line under the same test.] LysoTracker Staining: Fibroblasts cultured to 70-80% confluence were subjected to different stimuli under reduced serum (2%) DMEM medium followed by incubation with 75 nM LysoTracker Red DND99 (Invitrogen) for 45 mins. Cells were then washed thoroughly with filtered PBS and mounted on glass slides and viewed under BX41 fluorescence microscope"}}, "data": [{"compound": "CC(=O)Oc1ccccc1C(=O)O", "note": "[aspirin]", "values": [{"measurement": "toxic effects", "setting": "[1]", "value": "gastric ulcers, stomach bleeding, and tinnitus"}, {"measurement": "LAMP2 mRNA expression (real-time PCR), time course", "setting": "Lamp2, Limp2 and Npc1", "value": "time-dependent increase in LAMP2 mRNA"}, {"measurement": "level of LAMP2 (Western blot)", "setting": "LAMP2; PPARα (−/−) astrocytes, 24 h", "value": "not PPARα (−/−)"}, {"measurement": "level of LAMP2 (Western blot)", "setting": "LAMP2; PPARβ (−/−) astrocytes, 24 h", "value": "dose-dependently increased the level of LAMP2"}, {"measurement": "level of LAMP2 (Western blot)", "setting": "LAMP2; WT astrocytes, 24 h", "value": "dose-dependently increased the level of LAMP2"}, {"measurement": "LAMP2 protein expression (Western blot), time course", "setting": "LAMP2; astrocytes, 5 μM aspirin, serum-free", "value": "time-dependent increase"}, {"measurement": "LAMP2 protein expression (Western blot), dose", "setting": "LAMP2; astrocytes, aspirin 2 and 5 μM, 24 h", "value": "increase in LAMP2 protein expression"}, {"measurement": "lysosomal biogenesis (lyso-tracker staining)", "setting": "mouse primary astrocytes; PPARα (−/−) astrocytes, 5 μM aspirin", "value": "not PPARα (−/−)"}, {"measurement": "lysosomal biogenesis (lyso-tracker staining)", "setting": "mouse primary astrocytes; PPARβ (−/−) astrocytes, 5 μM aspirin", "value": "increased lysosomal biogenesis"}, {"measurement": "lysosomal biogenesis (lyso-tracker staining)", "setting": "mouse primary astrocytes; WT astrocytes, 5 μM aspirin", "value": "increased lysosomal biogenesis"}, {"measurement": "lysosomal biogenesis (lyso-tracker staining)", "setting": "mouse primary astrocytes; astrocytes, aspirin 10 μM, serum-free", "value": "not very potent in increasing lysosomal biogenesis"}, {"measurement": "lysosomal biogenesis (lyso-tracker staining)", "setting": "mouse primary astrocytes; astrocytes, aspirin 2 and 5 μM, serum-free", "value": "markedly increased lysosomal biogenesis"}]}]}
